# Results from paper PMC9310824 (Drug Delivery, 2022).
# Assays:
# [1] = design: method as in Yao et al., 2014; details: PBS, within 24 h, ref Yao et al., 2014; cited from earlier work
# [2] = Drug release study in vitro by dialysis; format: physicochemical; details: within 48 h, 37 °C
# Experimental: The release of AS in vitro was determined by dialysis (Algul et al., [2018]). AS free drug dispersion solution (5 mg/mL, 1 mL) and AS-AL-mPEG-PLGA containing the same volume and concentration of AS were added into dialysis bags (MV 3500 D, 25 mm × 5 m) accordingly. The dialysis bags were placed in a conical flask after their two sections have been fastened together. Subsequently, 100 mL releasing media (pH 1.2 HCl solution, double distilled water and pH 7.4 PBS solution) were added consequently, before the conical flask was placed in a thermostatic water bath oscillator (37 ± 0.5 °C, 100 rpm) for in vitro release experiment. Samples were taken from the conical flask after 0.083, 0.25, 0.5, 0.75, 1, 1.5, 2, 3, 4, 6, 8, 10, 12, 24, 36, 48, 60, 72, 84 and 96 h of oscillation, respectively, while the same stable release medium with the same volume was added accordingly to maintain its dynamic balance. The samples were centrifugated at 10,000 rpm for 10 min before injection into HPLC for analysis according to the chromatographic conditions under the section of “HPLC analysis of AS.” Finally, the peak areas were recorded, and the concentrations of AS were substituted into the standard curve to calculate the cumulative drug release rate.
# [3] = Pharmacokinetic study in rats; format: in vivo, SD rats; details: oral
# Experimental: Twelve SD rats (male, 200 ± 20 g) were maintained in the laboratory environment for 3 days before experiments. The rats were randomly divided into the free AS group and AS-AL-mPEG-PLGA group with 6 rats in each group. The rats have fasted from food for 12 h with free access to water before the experiment. Rats in the two groups were orally given free AS (dispersed CMC-Na solution) and AS-AL-mPEG-PLGA of equivalent AS dose (150 mg/kg). At each point of 0.25, 0.5, 0.75, 1, 1.5, 2, 2.5, 3, 4, 6, 8, 10, 12 and 24 h after administration, blood samples (0.4 mL) were collected from the orbit of rats with capillaries. The blood samples were placed in a 1.5 mL EP tube filled with heparin sodium and centrifuged at 3700 rpm for 10 min. Aliquot (200 μL) of supernatant was collected into another clean 1.5 mL EP tube. Next, 600 μL of methanol was added into the tube before vortexing for 1 min. The mixture was centrifuged at 10,000 rpm for 10 min and the methanol layer was […] prior to drying with N2 at 37 °C. The residue was dissolved with 100 μL methanol coupled with vortexing for 1 min, and then 10 min of centrifugation at 10,000 rpm. Then, the supernatant was taken and analyzed with HPLC. The peak areas of AS and internal standard were recorded and substituted into the standard curve in vivo to subsequently calculate the concentration of AS.
# [4] = Detection of AS content in rats' bones; format: in vivo; details: femur homogenate (1 g/mL saline) after the pharmacokinetic experiment, oral 150 mg/kg
# Experimental: After the pharmacokinetic experiment, the rats were sacrificed and the femurs were homogenized with normal saline at a ratio of 1 g/mL. We then centrifugated the homogenized samples at 10,000 rpm for 10 min, before treatment of the supernatant (200 μL) via the same method as described in the section “Pharmacokinetic study in rats.” Finally, the samples were analyzed via the HPLC method to detect the AS concentration in rats’ bones.
# [5] = system: rat osteoporosis model (OVX); experiment: Anti-osteoporotic effect in OVX rats: serum biochemical analysis (ELISA); format: in vivo
# Experimental: (§1) Bilateral ovariectomy (OVX) was performed to establish the rat osteoporosis model according to earlier work (Shakir et al., [2015]). Next, 24 rats were randomly divided into four groups (n = 6): sham operation group (Sham), OVX model group (OVX), free AS group (AS) and AS-AL-mPEG-PLGA group. Rats were anesthetized by intraperitoneal injection of pentobarbital sodium (1%, 8 mL/kg). Later, the rats were placed on a sterile table and fixed prone, while the surgical site on the back was shaved and sterilized with iodophor. Double incisions were taken under the costal back to separate the muscular layer and retroperitoneum into the abdominal cavity. The ovaries were found in the adipose tissue below the kidneys and were removed with bent tweezers and ligated before complete excision of the bilateral ovaries. After confirming that there was no active bleeding, the muscle layer and skin were interlocked, whilst the wound was disinfected. In the Sham group, only a small amount of adipose tissue around the ovaries was removed without damage to both ovaries. The operation was done gently while attention was paid to the sterility principle. After the operation, the rats were kept warm, while drug administration began 4 weeks afterwards at once a day for 12 weeks. Rats in the groups Sham and OVX were given 2 mL of normal saline via the oral route. Rats in the AS and AS-AL-mPEG-PLGA groups orally received 2 mL of free AS (dispersed in CMC-Na solution, 150 mg/kg) and AS-AL-mPEG-PLGA solution (150 mg/kg) every day, respectively.
# All the rats were sacrificed and blood samples were collected. The serum levels of TRACP-5b, BGP, IL-6 and CTX-1 were determined by enzyme-linked immunosorbent assay (ELISA) to evaluate bone absorption and bone formation. The operation steps were strictly in accordance with the instructions of the kits. Finally, the absorbances of the samples were measured at 450 nm with the microplate reader, so as to calculate the concentration of each biochemical index in the serum.
# [6] = system: rat osteoporosis model (OVX); experiment: Anti-osteoporotic effect in OVX rats: micro-CT analysis of femur; format: in vivo
# Experimental: as §1
# In order to evaluate the bone microstructure, the right femur was analyzed with high-resolution micro-CT using the micro-CT imaging system (Siemens, Inveon) according to the method described in the literature (Zhang et al., [2012]). The femur was fixed in the centrifuge tube by the long axis, while the surrounding was filled with gauze. Quantitative parameters of bone microstructure including percent bone volume (BV/TV), trabecular thickness (Tb.Th), trabecular number (Tb.N), trabecular separation (Tb.Sp), structural model index (SMI) and bone mineral density (BMD) were measured. All the digital data, 2 D and 3 D images were provided by the built-in software of micro-CT (Siemens, Inveon).
# [7] = system: rat osteoporosis model (OVX); experiment: Anti-osteoporotic effect in OVX rats: histological analysis (H&E) of femur; format: in vivo; details: compared with the OVX group
# Experimental: as §1, with “Rats in the AS and AS-AL-mPEG-PLGA groups orally received 2 mL of free AS (dispersed in CMC-Na solution, 150 mg/kg) and AS-AL-mPEG-PLGA solution (150 mg/kg) every day, respectively.” left out
# [8] = design: method as in Zhang et al., 2007; details: after p.o. administration, ref Zhang et al., 2007; cited from earlier work
# [9] = oral 150 mg/kg daily, 12 weeks, P < .01
compound,measurement,setting,value
"CN(C)c1ccc(O)c2c1C[C@H]1C[C@H]3[C@H](N(C)C)C(O)=C(C(N)=O)C(=O)[C@@]3(O)C(O)=C1C2=O [free minocycline, minocycline]",minocycline released,[1],~100%
Astragaloside,cumulative release rate,[2]; double distilled water,93.85%
same,cumulative release rate,[2]; pH 1.2 HCl solution,96.87%
same,cumulative release rate,[2]; pH 7.4 PBS solution,95.95%
same,mean plasma concentration at 1440 min,[3]; 150 mg/kg,260 ± 50 ng/mL
same,AUC0-t,[3]; AS dose 150 mg/kg,1520.45 ± 45.19 µg·min/mL
same,Cmax,[3]; AS dose 150 mg/kg,5250 ± 500 ng/mL
same,MRT,[3]; AS dose 150 mg/kg,5.55 ± 0.143 h
same,T1/2,[3]; AS dose 150 mg/kg,6.5952 ± 0.4407 h
same,Tmax,[3]; AS dose 150 mg/kg,2 ± 0 h
same,concentration of AS in bone,[4],1950 ± 170 ng/mL
same,expression level of IL-6 compared with OVX group,[5]; [9],decreased significantly
same,serum level of BGP compared with OVX group,[5]; [9],significantly decreased
same,serum level of CTX-1 compared with OVX group,[5]; [9],significantly decreased
same,serum level of TRACP-5b compared with OVX group,[5]; [9],significantly decreased
same,serum level of IL-6,[5]; oral 150 mg/kg once a day for 12 weeks,53.88 ± 4.23 pg/mL
same,bone microstructure in 2D and 3D micro-CT images,[6]; compared with OVX group,significantly reduce osteoporosis and increase dense bone mass
same,BMD (bone mineral density),"[6]; oral 150 mg/kg daily, 12 weeks",notably increased
same,BV/TV (percent bone volume),"[6]; oral 150 mg/kg daily, 12 weeks",notably increased
same,SMI (structural model index),"[6]; oral 150 mg/kg daily, 12 weeks",substantially reduced
same,Tb.N (trabecular number),"[6]; oral 150 mg/kg daily, 12 weeks",notably increased
same,Tb.Sp (trabecular separation),"[6]; oral 150 mg/kg daily, 12 weeks",substantially reduced
same,Tb.Th (trabecular thickness),"[6]; oral 150 mg/kg daily, 12 weeks",notably increased
same,"adipose tissue in femur, H&E staining",[7],relatively less adipose tissue
same,absolute bioavailability,[8],7.4%
